Calls of active or inactive are those of the source. The calls are words filed in the database; no cut-off is given here.

The first experiment deals with Acetylcholinesterase (Homo sapiens) (UniProt P22303). The experiment in a line: Antagonist activity at human nAChR in human SH-SY5Y cells assessed as inhibition of 70 mM K+ induced cytosolic Ca2+ signal at 0.3 to 100 uM. Format: functional, cell-based.
Chain of Acetylcholinesterase (Homo sapiens) (P22303 whole entry): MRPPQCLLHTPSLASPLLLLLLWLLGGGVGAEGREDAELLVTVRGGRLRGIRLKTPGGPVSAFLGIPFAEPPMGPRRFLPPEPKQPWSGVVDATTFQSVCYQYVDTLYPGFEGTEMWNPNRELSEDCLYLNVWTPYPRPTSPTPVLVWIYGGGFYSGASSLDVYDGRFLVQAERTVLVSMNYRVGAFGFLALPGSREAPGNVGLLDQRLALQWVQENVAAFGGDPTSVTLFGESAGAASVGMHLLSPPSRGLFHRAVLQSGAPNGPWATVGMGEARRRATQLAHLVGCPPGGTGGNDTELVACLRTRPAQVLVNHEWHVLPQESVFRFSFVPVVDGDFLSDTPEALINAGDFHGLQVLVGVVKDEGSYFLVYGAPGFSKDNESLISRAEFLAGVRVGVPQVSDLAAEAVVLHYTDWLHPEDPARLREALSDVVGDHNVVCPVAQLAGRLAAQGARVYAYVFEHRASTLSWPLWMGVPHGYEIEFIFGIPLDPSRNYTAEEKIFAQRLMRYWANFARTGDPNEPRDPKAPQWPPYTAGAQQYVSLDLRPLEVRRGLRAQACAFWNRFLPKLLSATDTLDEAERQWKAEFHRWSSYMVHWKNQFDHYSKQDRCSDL
Regarding `COc1nc2nc3c(c(N)c2cc1C#N)CCCC3`, the inhibition entry is “inactive”.

A further experiment concerns SH-SY5Y. The experiment in a line: Neuroprotection against rotenone/oligomycin-A-indced human SH-SY5Y cell death assessed as protective effect at 1 uM after 2 hrs by MTT assay. Format: functional. (In general: Formazan colour is commonly taken as a measure of viable cells.)
On to `N#Cc1cc2c(N)c3c(nc2nc1N1CCCCC1)CCCC3`, for which the Activity is recorded as 19%.

Regarding `CN(C)c1nc2nc3c(c(N)c2cc1C#N)CCCC3`, the Activity was 6%.

With `N#Cc1cc2c(N)c3c(nc2nc1Cl)CCCC3`, the Activity stood at 4%.

As for `COc1nc2nc3c(c(N)c2c(-c2ccccc2)c1C#N)CCCC3`, the Activity came out at 12%.

Regarding `N#Cc1c(Cl)nc2nc3c(c(N)c2c1-c1ccccc1)CCCC3`, the Activity is on record as 8%.

On to `C#CCNc1nc2nc3c(c(N)c2cc1C#N)CCCC3`, for which the Activity was determined as 20%.

With `CC(=O)N[C@@H](CS)C(=O)O` [ACETYLCYSTEINE], the Activity is on record as 33%.

For `N#Cc1cc2c(N)c3c(nc2nc1Cl)CCN(Cc1ccccc1)C3`, the Activity is listed as 20%.

Take `COc1nc2nc3c(c(N)c2cc1C#N)CN(Cc1ccccc1)CC3`: the Activity is on record as 11%.

On to `N#Cc1cc2c(N)c3c(nc2nc1N1CCCC1)CCCC3`, for which the Activity came to 29%.

With `COc1nc2nc3c(c(N)c2cc1C#N)CCCC3`, the Activity was found to be 23%.

In the case of `CN(C)c1nc2nc3c(c(N)c2c(-c2ccccc2)c1C#N)CCCC3`, the Activity was determined as 3%.

On to `CCOc1nc2nc3c(c(N)c2cc1C#N)CCCC3`, for which the Activity is listed as 29%.

For a further experiment, the target named is Acetylcholinesterase (Homo sapiens) (UniProt P22303). In words: Antagonist activity at human nAChR in human SH-SY5Y cells assessed as inhibition of acetylcholine-induced cytosolic Ca2+ signal at 0.3 to 100 uM. Format: functional, cell-based.
For the compound `COc1nc2nc3c(c(N)c2cc1C#N)CCCC3`, the inhibition result is “inactive”.

Another experiment deals with Acetylcholinesterase (Electrophorus electricus, UniProt O42275).
Chain of Acetylcholinesterase (Electrophorus electricus, UniProt O42275) (O42275 whole entry): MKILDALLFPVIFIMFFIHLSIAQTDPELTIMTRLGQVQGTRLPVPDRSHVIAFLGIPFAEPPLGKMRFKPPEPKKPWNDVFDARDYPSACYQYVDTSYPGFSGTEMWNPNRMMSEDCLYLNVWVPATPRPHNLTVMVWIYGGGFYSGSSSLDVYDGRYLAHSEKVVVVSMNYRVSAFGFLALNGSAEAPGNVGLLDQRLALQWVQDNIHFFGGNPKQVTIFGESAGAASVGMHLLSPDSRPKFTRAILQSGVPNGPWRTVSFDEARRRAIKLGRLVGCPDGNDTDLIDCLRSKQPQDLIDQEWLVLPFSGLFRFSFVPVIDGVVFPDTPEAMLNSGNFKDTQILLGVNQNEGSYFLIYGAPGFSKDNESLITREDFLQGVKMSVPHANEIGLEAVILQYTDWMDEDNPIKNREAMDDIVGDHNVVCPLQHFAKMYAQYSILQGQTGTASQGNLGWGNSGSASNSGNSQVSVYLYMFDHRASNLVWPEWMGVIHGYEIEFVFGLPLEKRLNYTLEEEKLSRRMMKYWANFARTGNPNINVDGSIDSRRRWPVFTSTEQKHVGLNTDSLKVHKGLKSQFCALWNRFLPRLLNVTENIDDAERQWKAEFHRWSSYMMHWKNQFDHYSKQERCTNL
Description: Inhibition of Electrophorus electricus AChE by Ellman's method
As for `N#Cc1cc2c(N)c3c(nc2nc1N1CCCCC1)CCCC3`, the IC50 (as a rule, the concentration needed to halve the response being measured) was found to be 25 nM.

`CN(C)c1nc2nc3c(c(N)c2cc1C#N)CCCC3` registered an IC50 of 14 nM.

In turn, `N#Cc1cc2c(N)c3c(nc2nc1Cl)CCCC3` had an IC50 of 5000 nM.

As to `COc1nc2nc3c(c(N)c2c(-c2ccccc2)c1C#N)CCCC3`, 80 nM corresponded to half-maximal inhibition (IC50).

Compound `N#Cc1c(Cl)nc2nc3c(c(N)c2c1-c1ccccc1)CCCC3` displayed an IC50 of more than 30000 nM.

`C#CCNc1nc2nc3c(c(N)c2cc1C#N)CCCC3` registered a half-inhibitory concentration (IC50) of 30 nM.

Compound `N#Cc1cc2c(N)c3c(nc2nc1Cl)CCN(Cc1ccccc1)C3` returned an IC50 of 350 nM.

`COc1nc2nc3c(c(N)c2cc1C#N)CN(Cc1ccccc1)CC3` yielded an IC50 of 350 nM.

`N#Cc1cc2c(N)c3c(nc2nc1N1CCCC1)CCCC3` registered an IC50 of 43 nM.

Take `COc1nc2nc3c(c(N)c2cc1C#N)CCCC3`: inhibition was half-maximal at 60 nM (IC50).

Compound `CN(C)c1nc2nc3c(c(N)c2c(-c2ccccc2)c1C#N)CCCC3` returned an IC50 of 90 nM.

`CCOc1nc2nc3c(c(N)c2cc1C#N)CCCC3` had an IC50 of 50 nM.

A further experiment relates to SH-SY5Y. The experiment in a line: Neuroprotection against okadaic acid-induced human SH-SY5Y cell death assessed as reduction in cell death at 0.1 to 1 uM. Format: functional, cell-based.
As to `COc1nc2nc3c(c(N)c2cc1C#N)CCCC3`, the outcome was Active.

The next experiment relates to SH-SY5Y. In words: Neuroprotection against okadaic acid-induced human SH-SY5Y cell death assessed as reduction in LDH release at 0.3 uM relative to control. Format: functional. More on the design: scale not given: the % may be the effect or the level left. (In general: Release of lactate dehydrogenase indicates damage to the cell membrane.)
On to `COc1nc2nc3c(c(N)c2cc1C#N)CCCC3`, for which the Activity was 65%.

In the next experiment the test system is SH-SY5Y. In words: Neuroprotection against okadaic acid-induced human SH-SY5Y cell death assessed as reduction in LDH release at 0.1 to 1 uM relative to control. Details: scale not given: the % may be the effect or the level left. Format: functional.
As for `COc1nc2nc3c(c(N)c2cc1C#N)CCCC3`, the Activity came out at 49%.

A further experiment deals with Cholinesterase (Equus caballus, UniProt P81908).
Chain of Cholinesterase (P81908 whole entry): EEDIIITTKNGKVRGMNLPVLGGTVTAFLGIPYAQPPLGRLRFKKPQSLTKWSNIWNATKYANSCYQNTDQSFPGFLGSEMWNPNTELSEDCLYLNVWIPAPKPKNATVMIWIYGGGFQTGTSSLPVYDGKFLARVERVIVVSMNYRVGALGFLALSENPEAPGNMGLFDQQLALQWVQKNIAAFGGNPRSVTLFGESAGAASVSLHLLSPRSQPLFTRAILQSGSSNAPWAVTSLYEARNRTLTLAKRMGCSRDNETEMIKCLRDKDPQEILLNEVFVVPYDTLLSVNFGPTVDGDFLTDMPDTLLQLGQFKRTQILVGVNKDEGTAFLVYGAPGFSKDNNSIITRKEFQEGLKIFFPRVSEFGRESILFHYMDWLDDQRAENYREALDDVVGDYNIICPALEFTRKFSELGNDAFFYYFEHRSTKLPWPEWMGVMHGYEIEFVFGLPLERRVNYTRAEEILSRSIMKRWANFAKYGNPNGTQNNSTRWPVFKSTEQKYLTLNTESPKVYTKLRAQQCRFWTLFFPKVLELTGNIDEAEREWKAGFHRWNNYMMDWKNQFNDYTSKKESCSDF
Description: Inhibition of horse serum BuChE by Ellman's method
With `N#Cc1cc2c(N)c3c(nc2nc1N1CCCCC1)CCCC3`, half-maximal inhibition (IC50) was put at 3.6 µM.

As to `CN(C)c1nc2nc3c(c(N)c2cc1C#N)CCCC3`, the IC50 is 5.2 µM.

Take `N#Cc1cc2c(N)c3c(nc2nc1Cl)CCCC3`: the IC50 was more than 30 µM.

`COc1nc2nc3c(c(N)c2c(-c2ccccc2)c1C#N)CCCC3` displayed a half-inhibitory concentration (IC50) of 5.1 µM.

With `N#Cc1c(Cl)nc2nc3c(c(N)c2c1-c1ccccc1)CCCC3`, the IC50 is more than 30 µM.

On to `C#CCNc1nc2nc3c(c(N)c2cc1C#N)CCCC3`, for which the IC50 was found to be 2.6 µM.

Compound `N#Cc1cc2c(N)c3c(nc2nc1Cl)CCN(Cc1ccccc1)C3` had an IC50 of more than 100 µM.

Consider `COc1nc2nc3c(c(N)c2cc1C#N)CN(Cc1ccccc1)CC3`, for which the IC50 was more than 100 µM.

For the compound `N#Cc1cc2c(N)c3c(nc2nc1N1CCCC1)CCCC3`, 5.6 µM corresponded to half-maximal inhibition (IC50).

`COc1nc2nc3c(c(N)c2cc1C#N)CCCC3` displayed a concentration for half-maximal inhibition (IC50) of 9.6 µM.

Compound `CN(C)c1nc2nc3c(c(N)c2c(-c2ccccc2)c1C#N)CCCC3` displayed an IC50 of 7.5 µM.

Take `CCOc1nc2nc3c(c(N)c2cc1C#N)CCCC3`: the IC50 was more than 30 µM.

In another experiment the target is T1, Acetylcholinesterase (Bos taurus, UniProt P23795).
T1 sequence (P23795 whole entry): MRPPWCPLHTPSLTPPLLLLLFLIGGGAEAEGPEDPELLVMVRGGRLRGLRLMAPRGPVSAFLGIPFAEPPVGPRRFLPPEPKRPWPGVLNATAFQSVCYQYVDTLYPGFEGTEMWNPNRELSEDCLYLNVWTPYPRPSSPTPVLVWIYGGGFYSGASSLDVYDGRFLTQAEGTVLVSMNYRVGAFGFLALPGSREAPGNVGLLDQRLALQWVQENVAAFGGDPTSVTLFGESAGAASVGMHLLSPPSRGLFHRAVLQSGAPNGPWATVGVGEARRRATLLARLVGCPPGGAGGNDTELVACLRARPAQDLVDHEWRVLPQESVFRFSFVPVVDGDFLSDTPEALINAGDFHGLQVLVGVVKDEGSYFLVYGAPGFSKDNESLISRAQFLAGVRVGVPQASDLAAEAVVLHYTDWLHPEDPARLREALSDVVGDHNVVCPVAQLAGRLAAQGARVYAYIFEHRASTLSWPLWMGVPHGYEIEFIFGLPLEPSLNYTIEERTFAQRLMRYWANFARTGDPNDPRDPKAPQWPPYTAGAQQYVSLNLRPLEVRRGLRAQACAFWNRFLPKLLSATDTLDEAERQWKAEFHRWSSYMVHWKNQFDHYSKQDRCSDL
Description: Inhibition of bovine erythrocytes AChE by Ellman's method
For `N#Cc1cc2c(N)c3c(nc2nc1N1CCCCC1)CCCC3`, the IC50 was determined as 1000 nM.

Compound `CN(C)c1nc2nc3c(c(N)c2cc1C#N)CCCC3` yielded an IC50 of 100 nM.

`N#Cc1cc2c(N)c3c(nc2nc1Cl)CCCC3` displayed an IC50 of more than 100000 nM.

In turn, `COc1nc2nc3c(c(N)c2c(-c2ccccc2)c1C#N)CCCC3` gave an IC50 of 5000 nM.

As to `N#Cc1c(Cl)nc2nc3c(c(N)c2c1-c1ccccc1)CCCC3`, the IC50 was more than 100000 nM.

Take `C#CCNc1nc2nc3c(c(N)c2cc1C#N)CCCC3`: half-maximal inhibition (IC50) was put at 1530 nM.

In turn, `N#Cc1cc2c(N)c3c(nc2nc1Cl)CCN(Cc1ccccc1)C3` had an IC50 of more than 100000 nM.

Turning to `COc1nc2nc3c(c(N)c2cc1C#N)CN(Cc1ccccc1)CC3`, the IC50 came out at 5000 nM.

For the compound `N#Cc1cc2c(N)c3c(nc2nc1N1CCCC1)CCCC3`, the IC50 stood at 160 nM.

Take `COc1nc2nc3c(c(N)c2cc1C#N)CCCC3`: the IC50 was 1600 nM.

As for `CN(C)c1nc2nc3c(c(N)c2c(-c2ccccc2)c1C#N)CCCC3`, the midpoint of inhibition, the IC50, lay at 4400 nM.

In the case of `CCOc1nc2nc3c(c(N)c2cc1C#N)CCCC3`, it took 1000 nM to reach half-maximal inhibition (IC50).
